Experimental data published in US10449184B2, “Pharmaceutical compositions of therapeutically active compounds” (Agios Pharmaceuticals, Inc., priority 2014, dated 2019).
In brackets after ≈: the same amount, converted by molar mass. Entries after “also recorded” stand apart in the source; their conditions may differ. Marks after values point to notes of the source that are not given here.

Tests used:
[1] = Phase 1 clinical trial: safety, adverse events and patient disposition; assay type: in vivo, human
From the text: The study includes a dose escalation phase to determine MTD followed by expansion cohorts to further evaluate the safety and tolerability of the MTD. The dose escalation phase will utilize a standard “3+3” design. […] Each dose cohort will plan to enroll a minimum of 3 subjects. The first 3 subjects enrolled in each dosing cohort during the dose escalation phase of the study will initially receive a single dose of study drug on Day −3 (i.e., 3 days prior to the start of daily dosing) and undergo PK/PD assessments over 72 hours to evaluate drug concentrations and 2HG levels. The next dose of study drug will be on Cycle 1 Day 1 (C1D1) at which time daily dosing will begin. The initial dosing regimen will be twice daily (approximately every 12 hours). If warranted based on the emerging data, an alternative dosing schedule (e.g., once daily or three times daily), including administration of the same total daily dose using different dosing schedules in concurrent cohorts, may be explored. If there are multiple subjects in the screening process at the time the third subject within a cohort begins treatment, up to 2 additional subjects may be enrolled with approval of the Medical Monitor. For these additional subjects, the Day −3 through Day 1 PK/PD assessments are optional following discussion with the Medical Monitor. The planned dose escalation scheme is illustrated in Table 1.
Toxicity severity will be graded according to the National Cancer Institute Common Terminology Criteria for Adverse Events (NCI CTCAE) version 4.03. A DLT is defined as follows. Hematologic includes prolonged myelosuppression, defined as persistence of ≥3 Grade neutropenia or thrombocytopenia (by NCI CTCAE, version 4.03, leukemia-specific criteria, i.e., marrow cellularity <5% on Day 28 or later from the start of study drug without evidence of leukemia) at least 42 days after the initiation of Cycle 1 therapy. Leukemia-specific grading should be used for cytopenias (based on percentage decrease from baseline: 50 to 75%=Grade 3, >75%=Grade 4). All AEs that cannot clearly be determined to be unrelated to Compound 1, or a pharmaceutically acceptable salt thereof will be considered relevant to determining DLTs.
AEs, including determination of DLTs, serious adverse events (SAEs), and AEs leading to discontinuation; safety laboratory parameters; physical examination findings; vital signs; 12-lead ECGs; LVEF; and ECOG PS will be monitored during the clinical study. The severity of AEs will be assessed by the NCI CTCAE, Version 4.03.
Adverse events will be summarized by Medical Dictionary for Regulatory Activities (MedDRA) system organ class and preferred term. Separate tabulations will be produced for all treatment-emergent AEs (TEAEs), treatment-related AEs (those considered by the Investigator as at least possibly drug related), SAEs, discontinuations due to AEs, and AEs of at least Grade 3 severity. By-subject listings will be provided for deaths, SAEs, DLTs, and AEs leading to discontinuation of treatment.

[2] = Phase 1 clinical trial: pharmacokinetics after oral administration; assay type: in vivo, human; settings: patients
Experimental: A full 72-hour PK/PD profile will be conducted: subjects will be required to remain at the study site for 10 hours on Day −3 and return on Days −2, −1, and 1 for 24, 48, and 72 hour samples, respectively.
All subjects will undergo PK/PD assessments over a 10-hour period on both C1D15 and C2D1. Additional pre-dose urine and/or blood sampling will be conducted on C1D8, C1D22, C2D15, C3D1, C3D15, and on Day 1 of all subsequent cycles. Available bone marrow biopsy samples also will be assessed for 2HG levels.
The blood samples will also be used for the determination of 2HG concentrations and for evaluation of cholesterol and 4β-OH-cholesterol levels.
The PK/PD profile from Day −3 through Day 1 is optional for additional subjects enrolled in the dose escalation phase (i.e., for any subjects beyond the 3 initial subjects enrolled in a cohort) and is not required for subjects enrolled in the expansion cohorts.
All subjects will undergo 10-hour PK/PD sampling on C1D15 and C2D1 (i.e., on Days 15 and 29 of twice daily dosing). […] Blood samples also will be drawn on Days 8 and 22 of Cycle 1, Day 15 of Cycle 2, Days 1 and 15 of Cycle 3, and Day 1 of each cycle thereafter; all samples will be obtained prior to dosing. Additionally, one blood sample will be drawn at the End of Treatment Visit.

[3] = system: advanced hematologic malignancies that harbor an IDH1 mutation (R/R AML); experiment: Phase 1 clinical trial: clinical activity assessed by Investigator using IWG AML and MDS criteria; assay type: in vivo, human
From the text: Subjects will undergo radiographic evaluations (CT/MRI), and assessment of bone marrow aspirates and biopsies and peripheral blood to assess the extent of disease, at screening, on Day 15, Day 29 and Day 57, and every 56 days thereafter while on study drug treatment, independent of dose delays and/or dose interruptions, and/or at any time when progression of disease is suspected. Two core tumor biopsies will be obtained at screening, at the time of the first assessment of response, and at the time of disease progression within a window of ±3 days around the planned assessment time point. For patients with acute myelogenous leukemia (AML), response to treatment will be determined by the Investigators based on modified International Working Group (IWG) response criteria.
Disease response to treatment will be assessed through the evaluation of bone marrow biopsies and/or aspirates, along with complete blood counts and examination of peripheral blood films. Subjects will have the extent of their disease assessed and recorded at screening, on Days 15, 29, and 57, every 56 days thereafter while on study drug treatment, independent of dose-delays and/or dose interruptions, and/or at any time when progression of disease is suspected. An assessment also will be conducted at the End of Treatment visit for subjects who discontinue the study due to reasons other than disease progression.
Response to treatment as assessed by the site Investigators using modified IWG (for subjects with hematologic malignancies, such as MDS, MDS/MPN or AML). Two-sided 90% confidence intervals on the response rates will be calculated for each dose level and overall. Data will also be summarized by type of malignancy for subjects in the cohort expansion phase. Descriptive statistics will be used to summarize Ki67 levels from tumor biopsies.

2HG = experiment: Phase 1 clinical trial: plasma 2HG inhibition; assay type: in vivo, human; settings: all dose levels
Experimental: Samples collected for PK assessments also will be used to assess 2HG levels. In addition, subjects will have blood drawn for determination of 2HG levels at the screening assessment.
The 2HG baseline was taken at Day −3 pre-treatment 2HG inhibition estimated based on 2HG pre-treatment level and AUC0-10 hr post treatment. For the 100 mg BID and 300 mg QD Cohorts, 3 to 4 patients were measured per time point and for the 500 mg QD Cohort, 1 to 3 patients were measured per time point.

[4] = system: primary human IDH-mutated blast cells; experiment: intracellular 2HG in primary blast cells ex vivo; assay type: cell-based; settings: 0.5 uM, 1 uM and 5 uM
[5] = system: IDH1 mutant R132H xenograft model; experiment: 2HG reduction in IDH1 mutant R132H xenograft model; assay type: in vivo; settings: single dose (50 mg/kg)
[6] = solubility in fasted state simulated intestinal fluid (FASSIF); assay type: physicochemical; settings: pH 6.1, fassif, pH of 6.1 at 4 hours
[7] = rat pharmacokinetics study of Example 4 (oral suspensions); assay type: in vivo, Sprague Dawley rats; settings: Sprague Dawley, 200 mg/kg oral suspension in vehicle, plasma
Experimental: The following three homogenous suspensions of Compound 1 are provided:
Form 2 in vehicle (1% d-alpha-tocopheryl polyethylene glycol 1000 succinate (TPGS):1% HPMCAS in water), an amorphous solid dispersion of 25% w/w Form 2 and 75% w/w HPMCAS-M (Solid Dispersion A) in vehicle, and an amorphous solid dispersion of 25% w/w Form 2 and 75% w/w PVAP (Solid Dispersion B) in vehicle (200 mg/kg in 10 mL/kg).
Each suspension is prepared on the day of dosing, and the Sprague Dawley rats are dosed orally. Serial plasma samples are taken at different time points following dosing. […] PK parameters, including AUC0-72 hr and Cmax, are calculated using WinNonlin software.

## N#Cc1ccnc(N2C(=O)CC[C@H]2C(=O)N(c2cncc(F)c2)[C@H](C(=O)NC2CC(F)(F)C2)c2ccccc2Cl)c1 [Compound 1, (S)—N—((S)-1-(2-chlorophenyl)-2-((3,3-difluorocyclobutyl)amino)-2-oxoethyl)-1-(4-cyanopyridin-2-yl)-N-(5-fluoropyridin-3-yl)-5-oxopyrrolidine-2-carboxamide]
[1]; 100 mg BID
  subjects discontinued study due to an intracranial bleed (SAE, resulted in death): 1
[1]; 100 mg cohort, patient with history of R BBB
  QT prolongation observed: patient population. Other QT prolongations observed: Grade 1 prolonged
[1]; 300 mg QD
  subjects who experienced differentiation syndrome (SAE): 1
[1]; 800 mg QD
  DLT (dose limiting toxicity) observed: One DLT (dose limiting toxicity) of grade 3 QT prolongation
  subjects who experienced tongue edema and QT prolongation (SAE): 1
[1]; 800 mg cohort
  QT prolongation observed: 300 mg cohort; and Grade 3 prolonged QT (DLT) in 800 mg cohort.
[1]; All grades
  At least 1 adverse event: 14 (82) n (%)
  Cough: 4 (24) n (%)
  Diarrhea: 3 (18) n (%)
  Dyspnea: 5 (29) n (%)
  Electrocardiogram QT prolonged: 3 (18) n (%)
  Fatigue: 5 (29) n (%)
  Febrile neutropenia: 3 (18) n (%)
  Nausea: 5 (29) n (%)
  Pyrexia: 4 (24) n (%)
  Vomiting: 4 (24) n (%)
[1]; All patients (N = 17)
  Death ≤28 days after Compound 1 Discontinuation: 6
  Discontinued due to AE (intracranial hemorrhage): 1** n
  Discontinued due to PD (progressive disease): 4 n
[1]; Cohort 1 100 mg BID (n = 4)
  Death ≤28 days after Compound 1 Discontinuation: 3
  Discontinued due to AE (intracranial hemorrhage): 1** n
  Discontinued due to PD (progressive disease): 2 n
[1]; Cohort 2 300 mg QD (n = 4)
  Death ≤28 days after Compound 1 Discontinuation: 2
  Discontinued due to PD (progressive disease): 1 n
[1]; Cohort 3 500 mg QD (n = 4)
  Death ≤28 days after Compound 1 Discontinuation: 1
  Discontinued due to PD (progressive disease): 1 n
[1]; Grade ≥3
  At least 1 adverse event: 11 (65) n (%)
  Cough: 0 n (%)
  Diarrhea: 0 n (%)
  Dyspnea: 2 (12) n (%)
  Electrocardiogram QT prolonged: 1 (6) n (%)
  Fatigue: 1 (6) n (%)
  Febrile neutropenia: 3 (18) n (%)
  Nausea: 1 (6) n (%)
  Pyrexia: 1 (6) n (%)
  Vomiting: 0 n (%)
  hypotension: Notable grade ≥3 AEs include: hypotension 2 (12%), mental status n (%)
  mental status changes: changes 2 (12%), neutropenia 2 (12%). AEs appear typical for this n (%)
  neutropenia: changes 2 (12%), neutropenia 2 (12%). AEs appear typical for this n (%)
[1]; all cohorts
  subjects who experienced serious adverse events: Eight
[2]; human, plasma
  half-life: 182 h
[2]
  drug accumulation: drug accumulation
  plasma exposure: high plasma exposure
[3]; Cohort 1 100 mg BID (n = 4)
  CR (complete response): 1
  Overall response rate (ORR = CR, Marrow CR and PR): 1/4
[3]; Cohort 2 300 mg QD (n = 4)
  CR (complete response): 1
  Overall response rate (ORR = CR, Marrow CR and PR): 1/4
  PD (progressive disease): 1
[3]; Cohort 3 500 mg QD (n = 4)
  CR (complete response): 1
  Marrow CR (≤5% blasts in BM; no hematological recovery): 2
  Overall response rate (ORR = CR, Marrow CR and PR): 3/4
[3]; Cohort 4 800 mg QD (n = 2)
  CR (complete response): 1
  Overall response rate (ORR = CR, Marrow CR and PR): 2/2
  PR (partial response): 1
[3]; Total N = 14
  CR (complete response): 4
  Marrow CR (≤5% blasts in BM; no hematological recovery): 2
  Overall response rate (ORR = CR, Marrow CR and PR): 7/14
  PD (progressive disease): 1
  PR (partial response): 1
[3]; patient refractory to 7+3, after 2 weeks of therapy
  blasts in bone marrow: < 5%
[3]; patient, after 2 weeks of therapy, maintained at D28
  response of single patient: met the criteria for a full CR
2HG; 100 mg BID, 300 mg QD or 500 mg QD
  plasma levels of 2HG: reduced to a normal range; also recorded: reduced to normal ranges
2HG; vs Day -3 pre-treatment level, AUC0-10 hr post treatment
  plasma 2HG inhibition: up to 98%
[4]
  intracellular 2HG: reduced intracellular 2HG
[5]
  2HG in xenograft: Reduction in 2HG was observed

## N#Cc1ccnc(N2C(=O)CC[C@H]2C(=O)N(c2cncc(F)c2)[C@H](C(=O)NC2CC(F)(F)C2)c2ccccc2Cl)c1 [Form 2, (S)—N—((S)-1-(2-chlorophenyl)-2-((3,3-difluorocyclobutyl)amino)-2-oxoethyl)-1-(4-cyanopyridin-2-yl)-N-(5-fluoropyridin-3-yl)-5-oxopyrrolidine-2-carboxamide]
[6]
  solubility at 4 h: ~18 µg/mL (≈ 30.9 µM)
[7]
  Cmax: 1600 ng/mL
[7]; read-out: AUC0-72 hr
  AUC(0-t): 21700 ng·h/mL
